What is called GI50 is the concentration giving 50% growth inhibition. In general, IC50 refers to the concentration at which inhibition is half-maximal. Read a low IC50 as higher potency.

Experimental findings from patent publication US10053485B2, “Cytotoxic agents that preferentially target leukemia inhibitory factor (LIF) for the treatment of malignancies and as new contraceptive agents” (Evestra, Inc., priority 2015, dated 2018) are described below.

One experiment has as its system A498. As to the kind of experiment: NCI-60 screen, Renal Cancer panel. The following applies: Homo sapiens, A498, 48 h. The class given is cell-based.
In experiment [1] the test system is MDA-MB-231 (TNBC) Xenograft. As to the kind of experiment: Tumor xenograft study, MDA-MB-231. The class given is in vivo, mice. As to the method: Uniform suspensions of human breast cancer MDA-MB-231 and human ovarian cancer IGROV1 cells (2×10^6) in 100 μL (0.02 carboxymethyl cellulose in phosphate buffered saline) were injected subcutaneously into the right and left flanks of 4- to 5-week-old female athymic nude mice (Charles River Laboratories). After 10 days, when the tumor […] reaches 100 mm^3, the mice were randomly allocated to 3 groups of each containing 6 animals. […] All drug was suspended in PBS followed by sonication (15 seconds with an intermittent interval of 5 seconds) for 1 minute. Tumors were allowed to reach palpability before drug intervention. Tumor size was measured every 3 days using digital Vernier Calipers and tumor volume was calculated using the ellipsoid formula [D×(d2)]/2, where D is the large diameter of the tumor and d represents the small diameter. On day 31, the mice were euthanized and tumors were harvested for protein and gene expression studies. […] FIG. 6B depicts a graph of tumor volume vs. time for the administration of EC300 at 2.5 mg/kg twice weekly in the MDA-MB-231 (TNBC) Xenograft. […] FIG. 7 depicts a graph of tumor volume vs. time for the administration of EC300 at 5 mg/kg 5 days per week in the IGROV1 (Ovarian) Xenograft. […] STAT3 phosphorylation is reduced in tumors that underwent treatment compared to control which is an indication of LIF downstream target.

Another experiment deals with A549 (Lung cancer). Put plainly: Short term (72 h) cytotoxicity assay. The class given is cell-based, human. The note with it: Homo sapiens; A549, 72 h cytotoxicity.
For the next experiment, the system named is MCF7. Put plainly: NCI-60 screen, Breast Cancer panel. The note with it: Homo sapiens, MCF7, 48 h. The experiment is classed as cell-based.
A further experiment has as its system NCI-H460. Put plainly: NCI-60 screen, Non-Small Cell Lung Cancer panel. The experiment is classed as cell-based. The following applies: Homo sapiens, NCI-H460, 48 h.
Another experiment has as its system MDA-MB-468. As to the kind of experiment: NCI-60 screen, Breast Cancer panel. The class given is cell-based. The note with it: Homo sapiens, MDA-MB-468, 48 h. Here is the method:
EC 330 was also tested using the NCI-60 Screening Methodology. The human tumor cell lines of the cancer screening panel are grown in RPMI 1640 medium containing 5% fetal bovine serum and 2 mM L-glutamine. For a typical screening experiment, cells are inoculated into 96 well microtiter plates in 100 μL at plating densities ranging from 5,000 to 40,000 cells/well depending on the doubling time of individual cell lines. After cell inoculation, the microtiter plates are incubated at 37° C., 5% CO2, 95% air and 100% relative humidity for 24 h prior to addition of experimental drugs. […]
Following drug addition, the plates are incubated for an additional 48 h at 37° C., 5% CO2, 95% air, and 100% relative humidity. […] Bound stain is subsequently solubilized with 10 mM trizma base, and the absorbance is read on an automated plate reader at a wavelength of 515 nm. […] Using the seven absorbance measurements [time zero, (Tz), control growth, (C), and test growth in the presence of drug at the five concentration levels (Ti)], the percentage growth is calculated at each of the drug concentrations levels. Percentage growth inhibition is calculated as: [(Ti−Tz)/(C−Tz)]×100 for concentrations for which Ti>/=Tz [(Ti−Tz)/Tz]×100 for concentrations for which Ti<Tz.
Three dose response parameters are calculated for each experimental agent. […]

In experiment [2] the test system is MDM2 / P53 in MCF-7 cells. Put plainly: P53 / MDM2 levels in MCF-7 cells (FIG. 5). The experiment is classed as cell-based, human.
Another experiment has as its system HOP-92. As to the kind of experiment: NCI-60 screen, Non-Small Cell Lung Cancer panel. The experiment is classed as cell-based. The following applies: Homo sapiens, HOP-92, 48 h.
The test system of a further experiment is UO-31. As to the kind of experiment: NCI-60 screen, Renal Cancer panel. The class given is cell-based. The following applies: Homo sapiens, UO-31, 48 h.
A further experiment deals with LOX IMVI. As to the kind of experiment: NCI-60 screen, Melanoma panel. The experiment is classed as cell-based. The note with it: Homo sapiens, 48 h.
The subject of another experiment is MALME-3M. As to the kind of experiment: NCI-60 screen, Melanoma panel. The experiment is classed as cell-based. The following applies: Homo sapiens, 48 h.
The mark [3] stands for this setting: read-out: GI50 (log10GI50) (converted).
Setting [4] is: read-out: LC50 (log10LC50) (converted).

For the compound `C#CC(F)(F)[C@]1(O)CCC2C3CCC4=CC(=O)CCC4=C3C(c3ccc(C4CC4)cc3)C[C@@]21C` (stereo partly drawn) [EC330, 17α-(1,1-difluoro-2-propyn-1-yl)-17β-hydroxy-11β-[4-p-(cyclopropyl)phenyl]estra-4,9-dien-3-one], the concentration for 50% growth inhibition (GI50) in the experiment on A498 (setting [3]) is 263 nM; in the experiment with MCF7 (setting [3]) it was 1230 nM; in the experiment on NCI-H460 (setting [3]), 2690 nM; in the experiment on MDA-MB-468 (SRB, read-out: GI50 (log10GI50) (converted)), 204 nM; in the experiment on HOP-92 (setting [3]) it was below 10 nM; in the experiment with UO-31 (setting [3]) it was below 10 nM. Moreover, the GI50 in the experiment on LOX IMVI (setting [3]) and in the experiment with MALME-3M (setting [3]) was below 10 nM throughout. Further, the CC50 was 3890 nM with A498 (setting [4]); above 100000 nM with MCF7 (setting [4]); above 100000 nM with NCI-H460 (setting [4]); 50100 nM in the experiment on MDA-MB-468 (setting [4]); 19.1 nM in the experiment with HOP-92 (setting [4]); below 10 nM in the experiment on UO-31 (setting [4]). Further, the CC50 in the experiment with LOX IMVI (setting [4]) is below 10 nM; in the experiment with MALME-3M (setting [4]) it was 81.3 nM. Further, the “apoptosis in xenograft tumors” value in experiment [1] (MDA-MB-231 xenograft tumors, FIG. 9) was “induced apoptosis dose dependently”. In addition, in [1] (human triple negative breast cancer (TNBC) model), the tumor growth result was “significantly reduced”. The “STAT3 phosphorylation in tumors” value in experiment [1] (treated vs. control, 'It is believed') is “reduced”. For the same compound, the half-maximal inhibitory concentration (IC50) in the experiment with A549 (Lung cancer) amounted to 25 nM. Besides, the “P53 levels / MDM2” value in experiment [2] was “restore P53 levels by inhibiting MDM2”.
